Data taken from US9938279B2, “Method for treating disease or condition susceptible to amelioration by AMPK activators and compounds of formula which are useful to activate AMP-activated protein kinase (AMPK)” (ENERGENESIS BIOMEDICAL CO., LTD, priority 2013, dated 2018).

Assays:
[1] = tested on: AMPK; experiment: AMPK activation assay (western blot phospho-AMPK Thr172) in C2C12; type: cell-based, mouse; conditions: C2C12 cells, 30 min treatment
Method: (§1) Effects of compounds on AMPK activation were analyzed in mouse muscle cell C2C12, mouse fibroblast 3T3-L1 and human hepatocyte Hep G2. Those cell lines were cultured in high-glucose Dulbecco's modified Eagle's medium (DMEM) containing 10% fetal bovine serum (FBS), 4 mM L-glutamine, 2 mM sodium pyruvate and 1% penicillin/streptomycin (Invitrogen GibcoBRL, Carlsbad, Calif., USA) at 37° C. under 5% CO2. Cells were plated at 3×10^5 per well (6-well plate). 24 h after plating, cells were treated with indicated compounds for 30 min followed by cell lysis and western blot analysis. Equal amount of protein were separated by SDS-PAGE and then electroblotted on to PVDF membranes. Membranes were blocked with 3% BSA in PBS for 60 min and incubated with anti-phospho-AMPK (Thr172) antibody (1:2,000, Cell signaling), anti-AMPK antibody (1:2,000, Cell signaling), anti-Glut4 antibody (1:1,000, Millipore) or anti-actin antibody (1:5,000; Chemicon International) at 4° C. overnight followed by the corresponding secondary antibody for 1 h at room temperature (RT). Immunoreactive bands were detected by enhanced chemiluminescence (ECL; Pierce, Rockford, Ill., USA) and recorded using Kodakfilm (Rochester, N.Y., USA). The detected signals were scanned and then quantified by using TotalLab Quant software (TotalLab).

[2] = tested on: AMPK; experiment: AMPK activation assay (western blot phospho-AMPK Thr172) in 3T3-L1; type: cell-based, mouse; conditions: 3T3-L1 cells, 30 min treatment
Method: as §1

[3] = tested on: AMPK; experiment: AMPK activation assay (western blot phospho-AMPK Thr172) in Hep G2; type: cell-based, human; conditions: Hep G2 cells, 30 min treatment
Method: as §1

| Structure (SMILES) | AMPK activation (% to control) C2C12 ([1]; 1 microM) | AMPK activation (% to control) C2C12 ([1]; 10 microM) | AMPK activation (% to control) C2C12 ([1]; 100 microM) | AMPK activation (% to control) C2C12 ([1]; 200 microM) | AMPK activation (% to control) 3T3-L1 ([2]; 1 microM) | AMPK activation (% to control) 3T3-L1 ([2]; 10 microM) | AMPK activation (% to control) 3T3-L1 ([2]; 100 microM) | AMPK activation (% to control) 3T3-L1 ([2]; 200 microM) | AMPK activation (% to control) Hep G2 ([3]; 1 microM) | AMPK activation (% to control) Hep G2 ([3]; 10 microM) | AMPK activation (% to control) Hep G2 ([3]; 100 microM) | AMPK activation (% to control) Hep G2 ([3]; 200 microM) |
| --- | --- | --- | --- | --- | --- | --- | --- | --- | --- | --- | --- | --- |
| Oc1nc(S)nc2nc[nH]c12 [Example 2-mercapto-6-hydroxypurine, 2-mercapto-6-hydroxypurine] | 109 % to control | 148 % to control | 251 % to control | 333 % to control | 115 % to control | 147 % to control | 220 % to control | 308 % to control | 113 % to control | 132 % to control | 209 % to control | 315 % to control |
| Nc1nc(S)nc2nc[nH]c12 [Example 2-mercaptoadenine, 2-mercaptoadenine] | 105 % to control | 115 % to control | 221 % to control | 289 % to control | 112 % to control | 128 % to control | 204 % to control | 297 % to control | 118 % to control | 119 % to control | 195 % to control | 308 % to control |
| Cc1nc(O)c2[nH]cnc2n1 [Example 2-methyl-6-hydroxypurine, 2-methyl-6-hydroxypurine] | 109 % to control | 139 % to control | 241 % to control | 305 % to control | 112 % to control | 144 % to control | 228 % to control | 338 % to control | 116 % to control | 162 % to control | 219 % to control | 347 % to control |
| O=c1[nH]cc(F)c(=O)[nH]1 [Example 5-fluorouracil, 5-fluorouracil] | 105 % to control | 105 % to control | 224 % to control | 318 % to control | 108 % to control | 113 % to control | 248 % to control | 322 % to control | 110 % to control | 134 % to control | 237 % to control | 319 % to control |
| Cc1c[nH]c(=O)nc1N [Example 5-methylcytosine, 5-methylcytosine] | 116 % to control | 157 % to control | 241 % to control | 338 % to control | 115 % to control | 161 % to control | 253 % to control | 356 % to control | 107 % to control | 114 % to control | 218 % to control | 317 % to control |
| O=c1cn[nH]c(=O)[nH]1 [Example 6-azauracil, 6-azauracil] | 109 % to control | 109 % to control | 197 % to control | 284 % to control | 109 % to control | 115 % to control | 185 % to control | 288 % to control | 108 % to control | 124 % to control | 199 % to control | 273 % to control |
| c1nc(NC2CCCCC2)c2[nH]cnc2n1 [Example 6-cyclohexylaminopurine, 6-cyclohexylaminopurine] | 107 % to control | 110 % to control | 248 % to control | 322 % to control | 107 % to control | 152 % to control | 269 % to control | 333 % to control | 111 % to control | 132 % to control | 261 % to control | 354 % to control |
| CCCCCCNc1ncnc2nc[nH]c12 [Example 6-hexylaminopurine, 6-hexylaminopurine] | 109 % to control | 123 % to control | 248 % to control | 359 % to control | 108 % to control | 111 % to control | 170 % to control | 265 % to control | 112 % to control | 148 % to control | 280 % to control | 317 % to control |
| Sc1ncnc2nc[nH]c12 [Example 6-mercaptopurine, 6-mercaptopurine] | 105 % to control | 119 % to control | 198 % to control | 289 % to control | 114 % to control | 128 % to control | 176 % to control | 218 % to control | 114 % to control | 122 % to control | 204 % to control | 279 % to control |
| CNc1ncnc2nc[nH]c12 [Example 6-methylaminopurine, 6-methylaminopurine] | 103 % to control | 108 % to control | 213 % to control | 328 % to control | 107 % to control | 129 % to control | 241 % to control | 347 % to control | 116 % to control | 141 % to control | 259 % to control | 363 % to control |
| Nc1nc2[nH]cnc2c(=S)[nH]1 [Example 6-thioquanine] | 116 % to control | 141 % to control | 215 % to control | 301 % to control | 115 % to control | 132 % to control | 241 % to control | 289 % to control | 116 % to control | 133 % to control | 229 % to control | 311 % to control |
| O=c1[nH]c(=O)n([C@H]2C[C@H](O)[C@@H](CO)O2)cc1F [Floxuridine] | 117 % to control | 144 % to control | 231 % to control | 312 % to control | 116 % to control | 141 % to control | 222 % to control | 343 % to control | 117 % to control | 147 % to control | 206 % to control | 308 % to control |
